# Tests used:
# [1] = test system: Hepa 1-6 cells; test: MTT reduction assay in Hepa 1-6 cells; format: cell-based, mouse; conditions: control and cytomix-exposed cells, 24 h
# Description: Mouse hepatoma cells (ATCC, CRL-1830) were grown to near confluence according to the manufacturer's instructions and then exposed to cytomix (a) for 24 hours. At the time of cytomix exposure, cells were treated with B12-CORM2 (25 μM) (b) or the other compounds shown in panel (A). […] (B) shown the relative mRNA levels for the pro-inflammatory enzyme NOS2 (black) and the anti-inflammatory cytokine interleukin 10 (IL10) (white), as measured by real time RT-PCR. Control and cytomix-treated cells were harvested, disrupted, and total RNA extracted. Both gene products increased in response to cytomix, but B12-CORM2 reduced NOS2 and enhanced IL10 expression. […]
# Metabolic capacity assessment: The metabolic state of Hepa 1-6 liver cells was measured using the MTT (3-(4,5-dimethylthiazol-2-yl)-2,5-diphenyltetrazolium bromide, a yellow tetrazole) reduction assay. MTT is reduced to the purple formazan by living cells, which is detected colorimetrically (at 570 nm). […]
# Cytomix damages and kills liver cells such as Hepa 1-6 cells. The metabolic state of Hepa 1-6 liver cells were measured using the MTT reduction assay. MTT (3-(4,5-dimethylthiazol-2-yl)-2,5-diphenyltetrazolium bromide, a yellow tetrazole) is reduced to the purple formazan by living cells, which is detected colorimetrically. […]
# [2] = test system: Hepa 1-6 cells; test: NOS2 and IL10 mRNA in cytomix-exposed Hepa 1-6 cells; format: cell-based, mouse; conditions: cytomix 24 h
# Description: Mouse hepatoma cells (ATCC, CRL-1830) were grown to near confluence according to the manufacturer's instructions and then exposed to cytomix (a) for 24 hours. At the time of cytomix exposure, cells were treated with B12-CORM2 (25 μM) (b) or the other compounds shown in panel (A). […] (B) shown the relative mRNA levels for the pro-inflammatory enzyme NOS2 (black) and the anti-inflammatory cytokine interleukin 10 (IL10) (white), as measured by real time RT-PCR. Control and cytomix-treated cells were harvested, disrupted, and total RNA extracted. Both gene products increased in response to cytomix, but B12-CORM2 reduced NOS2 and enhanced IL10 expression. […] Moreover, administration of the low molecular weight anti-oxidant N-acetyl cysteine (NAC, 5 mM) (d) abrogates the anti-inflammatory effect of the Re-based CORM according to the invention in accordance with the proposed redox mechanism of action. Finally, the NF-kB inhibitor BAY11 (BAY 11-7082, Santa Cruz) (e) fully blocks the cytomix effect on NOS2, but only partially reduces the effect on IL-10, indicating the NF-kB-independent mechanism of action of B12-CORM2 (*, P<0.05 compared with control cells; #, P<0.05 compared with cytomix treatment). […]
# Inflammation assessment. The mRNA levels for the pro-inflammatory enzyme NOS2 and the anti-inflammatory cytokine interleukin 10 (IL10) were measured by real time RT-PCR.
# [3] = test system: H9c2 cells; test: Western blot densitometry in H9c2 cells exposed to DOX; format: cell-based, rat; conditions: +DOX (0.5 μg/ml), 3 days of differentiation
# Description: (§1) Cell culture and treatments. H9c2 cells (embryonic rat cardiomyocytes; ATCC) were maintained in DMEM (Invitrogen) supplemented with 10% fetal bovine serum (Invitrogen) and 2 mmol/l 1-glutamine. Cells were plated on 35- or 100-mm dishes in DMEM with 2% FCS for differentiation. Doxorubicin (DOX) was added to complete medium and incubated at 37° C. for different intervals at a concentration (0.5 μg/ml) similar to the plasma concentrations encountered in clinical use. Some cells were exposed to B12-CORM2 (25 μM) with or without DOX. Cells collected after 3 days of differentiation.
# Differentiation assessment. Western blot analysis and densitometry were performed relative to tubulin for alpha-actinin as a specific marker of cardiomyocyte differentiation and intactness of the contractile apparatus.
# Mitochondrial integrity and density assessment. Western blot analysis and densitometry were performed relative to tubulin for citrate synthase.
# DOX and/or B12-CORM2 were added complete medium on day 1.
# [4] = test system: H9c2 cells; test: cell survival by Trypan blue exclusion in H9c2 cells exposed to DOX; format: cell-based, rat; conditions: +DOX (0.5 μg/ml)
# Description: as §1
# Cell survival. Cell survival was measured by Trypan blue exclusion.
# DOX and/or B12-CORM2 were added complete medium on day 1. […] Mitochondrial protection was accompanied by improved cell survival of B12-CORM2-treated cells exposed to DOX, as assessed by Trypan blue exclusion (Table 5).
# [5] = test system: E14 ESC embryoid bodies; test: beating embryoid body out-growths; format: cell-based, mouse; conditions: MitoQ given in the initial five days of differentiation
# Description: Culture and differentiation of murine E14 cells, murine D3 cells and human MEL1 cells. These cell lines were independently grown at 37° C. in 5% CO2 on gelatin-coated substrates prepared by coating plastic tissue culture flasks with a 0.1% gelatin solution. Cells were maintained in a standard medium (Iscove's Modified Dulbecco's Medium, Invitrogen) plus 15% newborn calf serum, non-essential amino acids, and nucleosides stock. Leukemia inhibitory factor (LIF) (Chemicon) at a final concentration of 1,000 U/ml and 100 μM 2-mercaptoethanol were added to standard medium to prevent differentiation. For the induction of differentiation the hanging drop method such as described in Keller, 1995, Curr. Opin. Cell. Biol., 7(6), 862-9 was used. E14 cells were cultivated without LIF in hanging drops to form embryoid bodies (EBs) ([…] cells per drop) for 2 days, then kept in suspension for 2 days, and finally plated on gelatin-coated, 96 well, single-culture dishes or single well slides. […] Adhered EBs monitored daily under an inverted microscope for spontaneously beating foci from day 3 onward until day 13. In total, 3×96 EBs from E14 cells were monitored. To confirm that the increase in contracting EBs is HO-1/CO-mediated, E14 cells were transduced with Sh-HO1 vector or empty vector, differentiated as above and monitored by fluorescence microscopy. […]
molecule,measurement,setting,value
hemin,MTT reduction (metabolic capacity),[1],did not provide any protection against the cytomix-induced damage
"CC(=O)N[C@@H](CS)C(=O)O [NAC, N-acetyl cysteine]","inflammatory response to cytomix (NOS2, IL10 mRNA)",[2],not protective
"COc1cccc2c1C(=O)c1c(O)c3c(c(O)c1C2=O)C[C@@](O)(C(=O)CO)C[C@@H]3O[C@H]1C[C@H](N)[C@H](O)[C@H](C)O1 [DOX, Doxorubicin]",Alpha actinin expression levels (% as compared to untreated cells),[3],57.1% (11)
same,Citrate synthase expression levels (% as compared to untreated cells),[3],60% (12.3)
same,Surviving cells (% as compared to untreated cells),[4],61% (9.9)
Cc1ccc(S(=O)(=O)/C=C/C#N)cc1 [BAY11],cytomix effect on NOS2 induction,[2],fully blocks the cytomix effect on NOS2 induction
COC1=C(OC)C(=O)C(CCCCCCCCCC[P+](c2ccccc2)(c2ccccc2)c2ccccc2)=C(C)C1=O [MitoQ],effect on B12-CORM2-induced percentage of beating EB,[5],the B12-CORM2 effect was blocked

# Reference: patent US20160243151A1, “CO-RELEASING COMPOUNDS & FORMULATIONS THEREOF USEFUL FOR INDUCING MITOCHONDRIAL BIOGENESIS AND TISSUE REPAIR” (UNIVERSITÄT ZÜRICH, priority 2013, published 2016)
